Assay results from patent US20230041743A1, “1,8-NAPHTHYRIDIN-2-ONE COMPOUNDS FOR THE TREATMENT OF AUTOIMMUNE DISEASE” (Hoffmann-La Roche Inc., priority 2019, published 2023).

Experiments:
[1] = target: T1, human TLR7 (Homo sapiens, UniProt Q9NYK1); assay: HEK293-Blue-hTLR-7 cells assay (SEAP reporter, R848 stimulation); type: cell-based; conditions: HEK293-Blue-hTLR7 cells, R848 ligand, 20 hrs incubation; read-out: HEK/hTLR7 IC50
T1 construct: host or cells: HEK293 (HEK-Blue hTLR7)
T1 sequence (Q9NYK1 27-1049): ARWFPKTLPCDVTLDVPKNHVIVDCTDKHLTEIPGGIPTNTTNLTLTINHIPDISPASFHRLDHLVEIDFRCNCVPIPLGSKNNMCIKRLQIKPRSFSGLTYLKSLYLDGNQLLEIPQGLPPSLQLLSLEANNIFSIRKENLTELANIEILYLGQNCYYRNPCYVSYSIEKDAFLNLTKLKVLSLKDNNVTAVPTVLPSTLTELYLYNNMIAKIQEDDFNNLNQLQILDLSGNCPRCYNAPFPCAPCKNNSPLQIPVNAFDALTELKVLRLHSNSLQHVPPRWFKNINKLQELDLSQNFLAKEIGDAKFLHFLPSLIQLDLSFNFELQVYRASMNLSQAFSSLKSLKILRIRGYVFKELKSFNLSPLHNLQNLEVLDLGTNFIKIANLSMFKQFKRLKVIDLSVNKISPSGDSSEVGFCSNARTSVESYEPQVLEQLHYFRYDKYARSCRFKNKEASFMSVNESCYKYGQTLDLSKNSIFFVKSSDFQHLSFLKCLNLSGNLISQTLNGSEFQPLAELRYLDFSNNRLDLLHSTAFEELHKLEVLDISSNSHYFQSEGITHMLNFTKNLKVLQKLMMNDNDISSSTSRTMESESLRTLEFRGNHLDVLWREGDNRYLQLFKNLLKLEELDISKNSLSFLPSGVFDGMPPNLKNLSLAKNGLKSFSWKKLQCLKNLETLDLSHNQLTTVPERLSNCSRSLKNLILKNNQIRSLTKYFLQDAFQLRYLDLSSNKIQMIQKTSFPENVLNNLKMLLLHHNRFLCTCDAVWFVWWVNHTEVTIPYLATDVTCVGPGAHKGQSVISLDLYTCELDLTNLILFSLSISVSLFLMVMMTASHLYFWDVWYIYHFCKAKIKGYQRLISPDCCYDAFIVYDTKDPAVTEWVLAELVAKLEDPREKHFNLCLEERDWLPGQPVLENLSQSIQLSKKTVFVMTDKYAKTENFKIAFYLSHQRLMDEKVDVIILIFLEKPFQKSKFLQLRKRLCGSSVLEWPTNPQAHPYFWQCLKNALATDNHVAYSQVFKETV
Text: HEK293-Blue-hTLR-7 Cells Assay:
A stable HEK293-Blue-hTLR-7 cell line was purchased from InvivoGen (Cat. #: hkb-htlr7, San Diego, Calif., USA). These cells were originally designed for studying the stimulation of human TLR7 by monitoring the activation of NF-κB. A SEAP (secreted embryonic alkaline phosphatase) reporter gene was placed under the control of the IFN-β minimal promoter fused to five NF-κB and AP-1-binding sites. The SEAP was induced by activating NF-κB and AP-1 via stimulating HEK-Blue hTLR7 cells with TLR7 ligands. Therefore the reporter expression was declined by TLR7 antagonist under the stimulation of a ligand, such as R848 (Resiquimod), for incubation of 20 hrs. The cell culture supernatant SEAP reporter activity was determined using QUANTI-Blue™ kit (Cat. #: rep-qb1, Invivogen, San Diego, Ca, USA) at a wavelength of 640 nm, a detection medium that turns purple or blue in the presence of alkaline phosphatase.
HEK293-Blue-hTLR7 cells were incubated at a density of 250,000-450,000 cells/mL in a volume of 170 μL in a 96-well plate in Dulbecco's Modified Eagle's medium (DMEM) containing 4.5 g/L glucose, 50 U/mL penicillin, […], […], 2 mM L-glutamine, 10% (v/v) heat-inactivated fetal bovine serum with addition of 20 μL test compound in a serial dilution in the presence of final DMSO at 1% and 10 μL of 20 uM R848 in above DMEM, perform incubation under 37° C. in a CO2 incubator for 20 hrs. Then 20 μL of the supernatant from each well was incubated with 180 μL Quanti-blue substrate solution at 37° C. for 2 hrs and the absorbance was read at 620˜655 nm using a spectrophotometer. The signaling pathway that TLR7 activation leads to downstream NF-κB activation has been widely accepted, and therefore similar reporter assay was modified for evaluating TLR7 antagonist.

[2] = Human microsomal stability assay; type: in vitro ADME; conditions: human liver microsomes, 1 μM test compound, 0.5 mg/mL protein, 37° C.; low <7.0, medium 7.0-16.2, high 16.2-23.2
Protocol: Human Microsomal Stability Assay
Human liver microsomes (Cat. NO.: 452117, Corning, USA) were preincubated with test compound for 10 minutes at 37° C. in 100 mM potassium phosphate buffer, pH 7.4. The reactions were initiated by adding NADPH regenerating system. The final incubation mixtures contained 1 μM test compound, 0.5 mg/mL liver microsomal protein, 1 mM MgCl2, 1 mM NADP, 1 unit/mL isocitric dehydrogenase and 6 mM isocitric acid in 100 mM potassium phosphate buffer, pH 7.4. After incubation times of 0, 3, 6, 9, 15 and 30 minutes at 37° C., 300 μL of cold ACN (including internal standard) was added to 100 μL incubation mixture to terminate the reaction. Following precipitation and centrifugation, 100 uL supernatant will be taken out and added 300 uL water.
The amount of compound remaining in the samples was determined by LC-MS/MS. Controls of no NADPH regenerating system at zero and 30 minutes were also prepared and analyzed. The results were categorized as: low (<7.0 mL/min/kg), medium (7.0-16.2 mL/min/kg) and high (16.2-23.2 mL/min/kg).

IC50 [1]	CL (h) [2]	Compound
7 nM	7.3 mL/min/kg	C[C@@H]1CN(c2cc(=O)n(C)c3ncccc23)C[C@@H]2c3ccc([C@H]4CC[C@H](N5CCOCC5)CC4)cc3CN12 [Example 27A, 4-[(4R,10bS)-4-methyl-8-(trans-4-morpholinocyclohexyl)-3,4,6,10b-tetrahydro-1H-pyrazino[2,1-a]isoindol-2-yl]-1-methyl-1,8-naphthyridin-2-one]
30.4 nM		C[C@@H]1CN(c2cc(=O)n(C)c3ncccc23)C[C@@H]2c3ccc(N4CC(C)(N)C4)cc3CN12 [Example 1, 4-[(4R,10bS)-8-(3-amino-3-methyl-azetidin-1-yl)-4-methyl-3,4,6,10b-tetrahydro-1H-pyrazino[2,1-a]isoindol-2-yl]-1-methyl-1,8-naphthyridin-2-one]
15.6 nM	6.2 mL/min/kg	C[C@@H]1CN(c2cc(=O)n(C)c3ncccc23)C[C@@H]2c3ccc(N4C[C@@H]5C[C@H]4CN5)cc3CN12 [Example 19, 4-[(4R,10bS)-8-[(1S,4S)-2,5-diazabicyclo[2.2.1]heptan-2-yl]-4-methyl-3,4,6,10b-tetrahydro-1H-pyrazino[2,1-a]isoindol-2-yl]-1-methyl-1,8-naphthyridin-2-one]
39.5 nM	6.3 mL/min/kg	C[C@@H]1CN(c2cc(=O)n(C)c3ncccc23)C[C@@H]2c3ccc(N4CC[C@@](C)(N)C4)cc3CN12 [Example 4, 4-[(4R,10bS)-8-[(3R)-3-amino-3-methyl-pyrrolidin-1-yl]-4-methyl-3,4,6,10b-tetrahydro-1H-pyrazino[2,1-a]isoindol-2-yl]-1-methyl-1,8-naphthyridin-2-one]
15.9 nM	8.5 mL/min/kg	C[C@@H]1CN(c2cc(=O)n(C)c3ncccc23)C[C@@H]2c3ccc(N4CCC[C@@H](N)C4)cc3CN12 [Example 16, 4-[(4R,10bS)-8-[(3R)-3-amino-1-piperidyl]-4-methyl-3,4,6,10b-tetrahydro-1H-pyrazino[2,1-a]isoindol-2-yl]-1-methyl-1,8-naphthyridin-2-one]
43.7 nM	9.4 mL/min/kg	C[C@@H]1CN(c2cc(=O)n(C)c3ncccc23)C[C@@H]2c3ccc(N4C[C@@H](N)[C@@H](F)C4)cc3CN12 [Example 7, 4-[(4R,10bS)-8-[(3R,4S)-3-amino-4-fluoro-pyrrolidin-1-yl]-4-methyl-3,4,6,10b-tetrahydro-1H-pyrazino[2,1-a]isoindol-2-yl]-1-methyl-1,8-naphthyridin-2-one]
62 nM		C[C@@H]1CN(c2cc(=O)n(C)c3ncccc23)C[C@@H]2c3ccc(N4C[C@H]5NCCO[C@@H]5C4)cc3CN12 [Example 6, 4-[(4R,10bS)-8-[(4aR,7aR)-3,4,4a,5,7,7a-hexahydro-2H-pyrrolo[3,4-b][1,4]oxazin-6-yl]-4-methyl-3,4,6,10b-tetrahydro-1H-pyrazino[2,1-a]isoindol-2-yl]-1-methyl-1,8-naphthyridin-2-one]
2.8 nM		C[C@@H]1CNCCN1c1ccc2c(c1)CN1[C@H](C)CN(c3cc(=O)n(C)c4ncccc34)C[C@H]21 [Example 17, 4-[(4R,10bS)-4-methyl-8-[(2R)-2-methylpiperazin-1-yl]-3,4,6,10b-tetrahydro-1H-pyrazino[2,1-a]isoindol-2-yl]-1-methyl-1,8-naphthyridin-2-one]
19.4 nM		CO[C@H]1CN(c2ccc3c(c2)CN2[C@H](C)CN(c4cc(=O)n(C)c5ncccc45)C[C@H]32)CC[C@@H]1N [Example 8, 4-[(4R,10bS)-8-[(3S,4S)-4-amino-3-methoxy-1-piperidyl]-4-methyl-3,4,6,10b-tetrahydro-1H-pyrazino[2,1-a]isoindol-2-yl]-1-methyl-1,8-naphthyridin-2-one]
21.1 nM		C[C@@H]1CN(c2cc(=O)n(C)c3ncccc23)C[C@@H]2c3ccc(N4CC5(CNCCO5)C4)cc3CN12 [Example 3, 4-[(4R,10bS)-4-methyl-8-(5-oxa-2,8-diazaspiro[3.5]nonan-2-yl)-3,4,6,10b-tetrahydro-1H-pyrazino[2,1-a]isoindol-2-yl]-1-methyl-1,8-naphthyridin-2-one]
10 nM		C[C@@H]1CN(c2cc(=O)n(C)c3ncccc23)C[C@@H]2c3ccc([C@H]4CC[C@@H](N5CCOCC5)CC4)cc3CN12 [Example 27B, 4-[(4R,10bS)-4-methyl-8-(cis-4-morpholinocyclohexyl)-3,4,6,10b-tetrahydro-1H-pyrazino[2,1-a]isoindol-2-yl]-1-methyl-1,8-naphthyridin-2-one]
9.1 nM		COC[C@@H]1CNCCN1c1ccc2c(c1)CN1[C@H](C)CN(c3cc(=O)n(C)c4ncccc34)C[C@H]21 [Example 10, 4-[(4R,10bS)-8-[(2S)-2-(methoxymethyl)piperazin-1-yl]-4-methyl-3,4,6,10b-tetrahydro-1H-pyrazino[2,1-a]isoindol-2-yl]-1-methyl-1,8-naphthyridin-2-one]
35.8 nM		C[C@@H]1CN(c2cc(=O)n(C)c3ncccc23)C[C@@H]2c3ccc(N4CCOC[C@H](N)C4)cc3CN12 [Example 22, 4-[(4R,10bS)-8-[(6R)-6-amino-1,4-oxazepan-4-yl]-4-methyl-3,4,6,10b-tetrahydro-1H-pyrazino[2,1-a]isoindol-2-yl]-1-methyl-1,8-naphthyridin-2-one]
8.6 nM		C[C@@H]1CN(c2cc(=O)n(C)c3ncccc23)C[C@@H]2c3ccc([C@@H]4C[C@H]5COC[C@@H](C4)N5)cc3CN12 [Example 28B, 4-[(4R,10bS)-4-methyl-8-(exo-3-oxa-9-azabicyclo[3.3.1]nonan-7-yl)-3,4,6,10b-tetrahydro-1H-pyrazino[2,1-a]isoindol-2-yl]-1-methyl-1,8-naphthyridin-2-one]
6.4 nM		C[C@@H]1CN(c2ccc3c(c2)CN2[C@H](C)CN(c4cc(=O)n(C)c5ncccc45)C[C@H]32)CCN1 [Example 14, 4-[(4R,10bS)-4-methyl-8-[(3R)-3-methylpiperazin-1-yl]-3,4,6,10b-tetrahydro-1H-pyrazino[2,1-a]isoindol-2-yl]-1-methyl-1,8-naphthyridin-2-one]

Compound	IC50 [1]	CL (h) [2]
C[C@@H]1CN(c2cc(=O)n(C)c3ncccc23)C[C@@H]2c3ccc(N4CC5CCC(C4)N5)cc3CN12 [Example 21, 4-[(4R,10bS)-8-(3,8-diazabicyclo[3.2.1]octan-3-yl)-4-methyl-3,4,6,10b-tetrahydro-1H-pyrazino[2,1-a]isoindol-2-yl]-1-methyl-1,8-naphthyridin-2-one]	13.7 nM	6.4 mL/min/kg
